This note sets out measurements from patent US20190367516A1 (Bayer Pharma Aktiengesellschaft, priority 2015, published 2019).

Test [1] addresses T1, human M2 receptor (Homo sapiens, UniProt P08172).
T1 sequence (P08172 1-466): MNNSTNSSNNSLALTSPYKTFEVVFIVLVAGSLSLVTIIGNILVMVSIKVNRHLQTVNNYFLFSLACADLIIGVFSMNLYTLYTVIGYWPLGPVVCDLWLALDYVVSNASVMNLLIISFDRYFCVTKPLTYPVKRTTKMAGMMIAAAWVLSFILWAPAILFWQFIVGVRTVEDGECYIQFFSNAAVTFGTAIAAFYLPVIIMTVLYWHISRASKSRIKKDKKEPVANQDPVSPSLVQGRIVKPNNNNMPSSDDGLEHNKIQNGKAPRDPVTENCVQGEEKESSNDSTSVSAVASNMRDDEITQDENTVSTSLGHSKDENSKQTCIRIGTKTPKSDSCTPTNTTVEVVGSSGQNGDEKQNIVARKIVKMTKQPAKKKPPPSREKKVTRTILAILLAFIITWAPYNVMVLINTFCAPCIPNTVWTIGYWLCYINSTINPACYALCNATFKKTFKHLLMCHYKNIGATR
Particulars: M2-GIRK1/4 reporter cells; for EC50: Receptor activity EC50, allosteric potency at EC20 acetylcholine, in some cases mean of two or more determinations; for Emax: read-out: Efficiency, boosting of the acetylcholine effect at EC20 acetylcholine concentration.

Test [2] concerns the target T1, human M2 receptor. It counts as cell-based. As to conditions: shift of acetylcholine dose-response curve (Allosteric EC50 shift); α >1 = positive cooperativity.

The EC50 is the midpoint of the concentration-response curve.

On to `O=C(NC1(C(F)(F)F)CCC1)c1cn(-c2c(F)cc(F)cc2F)c2nc(N3C[C@@H](O)CC3=O)ccc2c1=O` [Example 515, 7-[(4S)-4-Hydroxy-2-oxopyrrolidin-1-yl]-4-oxo-N-[1-(trifluoromethyl)cyclobutyl]-1-(2,4,6-trifluorophenyl)-1,4-dihydro-1,8-naphthyridine-3-carboxamide], for which, on human M2 receptor [1], it took 12 nM to reach a half-maximal effect (EC50) and the Emax is 99.3%. Besides, the “Cooperativity (alpha factor)” value on human M2 receptor [2] is recorded as 37.
For `CC(C)(NC(=O)c1cn(-c2c(F)cc(F)cc2F)c2nc(N3C[C@@H](O)CC3=O)ccc2c1=O)C(F)F` [Example 516, N-(1,1-Difluoro-2-methylpropan-2-yl)-7-[(4S)-4-hydroxy-2-oxopyrrolidin-1-yl]-4-oxo-1-(2,4,6-trifluorophenyl)-1,4-dihydro-1,8-naphthyridine-3-carboxamide], on human M2 receptor [1], the response was half-maximal at 20 nM (EC50) and the Emax is 100%. At human M2 receptor [2], the “Cooperativity (alpha factor)” value was 35.
`CO[C@H]1CCN(c2ccc3c(=O)c(C(=O)N[C@@H](C4CC4)C(F)(F)F)cn(-c4c(F)cc(F)cc4F)c3n2)C1` [Example 535, N-[(1 S)-1-Cyclopropyl-2,2,2-trifluoroethyl]-7-[(3S)-3-methoxypyrrolidin-1-yl]-4-oxo-1-(2,4,6-trifluorophenyl)-1,4-dihydro-1,8-naphthyridine-3-carboxamide]: on human M2 receptor [1], it took 7 nM to reach a half-maximal effect (EC50) and the Emax is 100%. Moreover, the “Cooperativity (alpha factor)” value on human M2 receptor [2] stood at 27.
For the compound `CCN1CCCN(c2ccc3c(=O)c(C(=O)N[C@@H](C4CC4)C(F)(F)F)cn(-c4c(F)cc(F)cc4F)c3n2)C1=O` [Example 539, N-[(1S)-1-Cyclopropyl-2,2,2-trifluoroethyl]-7-(3-ethyl-2-oxotetrahydropyrimidin-1(2H)-yl)-4-oxo-1-(2,4,6-trifluorophenyl)-1,4-dihydro-1,8-naphthyridine-3-carboxamide], at human M2 receptor [1], a half-maximal effect (EC50) was put at 7 nM and the Emax turned out to be 86.5%. Further, the “Cooperativity (alpha factor)” value on human M2 receptor [2] was determined as 21.
For `CC(C)C[C@H](NC(=O)c1cn(-c2c(F)cc(F)cc2F)c2nc(N3CCNC3=O)ccc2c1=O)C(F)(F)F` [Example 543, 4-Oxo-7-(2-oxoimidazolidin-1-yl)-N-[(2S)-1,1,1-trifluoro-4-methylpentan-2-yl)-1-(2,4,6-trifluorophenyl)-1,4-dihydro-1,8-naphthyridine-3-carboxamide], in that order: 8 nM, 100% and 28.
Turning to `CC(C)C[C@H](NC(=O)c1cn(-c2c(F)cc(F)cc2F)c2nc(N3C[C@@H](O)[C@@H](O)C3)ccc2c1=O)C(F)(F)F` [Example 573, 7-[(3R,4S)-3,4-Dihydroxypyrrolidin-1-yl]-4-oxo-N-[(2S)-1,1,1-trifluoro-4-methylpentan-2-yl]-1-(2,4,6-trifluorophenyl)-1,4-dihydro-1,8-naphthyridine-3-carboxamide], at human M2 receptor [1], the EC50 was 12 nM and the Emax came out at 100%. The “Cooperativity (alpha factor)” value on human M2 receptor [2] is reported as 57.
On to `CC(C)C[C@@H](NC(=O)c1cn(-c2c(F)cc(F)cc2F)c2nc(N3C[C@@H](O)[C@@H](O)C3)ccc2c1=O)C(F)(F)F` [Example 574, 7-[(3R,4S)-3,4-Dihydroxypyrrolidin-1-yl]-4-oxo-N-[(2R)-1,1,1-trifluoro-4-methylpentan-2-yl]-1-(2,4,6-trifluorophenyl)-1,4-dihydro-1,8-naphthyridine-3-carboxamide], for which, on human M2 receptor [1], the EC50 is 12 nM and the Emax came to 100%. For the same compound, at human M2 receptor [2], the “Cooperativity (alpha factor)” value is 36.
The like results for `COC(=O)N1CCN(c2ccc3c(=O)c(C(=O)Nc4c(Cl)cccc4Cl)cn(-c4c(F)cc(F)cc4F)c3n2)CC1` [Example 593, Methyl 4-{6-[(2,6-dichlorophenyl)carbamoyl]-5-oxo-8-(2,4,6-trifluorophenyl)-5,8-dihydro-1,8-naphthyridin-2-yl}piperazine-1-carboxylate] were, in that order, 17 nM, 89.5% and 29.
Regarding `CC[C@H](NC(=O)c1cn(-c2c(F)cc(F)cc2F)c2nc(N3CCN(C(=O)OC)CC3)ccc2c1=O)C(F)(F)F` [Example 595, Methyl 4-[5-oxo-6-{[(2S)-1,1,1-trifluorobutan-2-yl]carbamoyl}-8-(2,4,6-trifluorophenyl)-5,8-dihydro-1,8-naphthyridin-2-yl]piperazine-1-carboxylate], at human M2 receptor [1], the EC50 turned out to be 19 nM and the Emax was 94%. For the same compound, the “Cooperativity (alpha factor)” value on human M2 receptor [2] was 36.
In the case of `O=C(NC1(C(F)(F)F)CCC1)c1cn(-c2c(F)cc(F)cc2F)c2nc(N3CCNC3=O)ccc2c1=O` [Example 596, 4-Oxo-7-(2-oxoimidazolidin-1-yl)-N-[1-(trifluoromethyl)cyclobutyl]-1-(2,4,6-trifluorophenyl)-1,4-dihydro-1,8-naphthyridine-3-carboxamide], at human M2 receptor [1], the response was half-maximal at 21 nM (EC50) and the Emax was 98.5%. For the same compound, the “Cooperativity (alpha factor)” value at human M2 receptor [2] came to 19.
The like results for `CC[C@@H](NC(=O)c1cn(-c2c(F)cccc2F)c2nc(N3C[C@@H](O)[C@H](O)C3)ccc2c1=O)C(F)(F)F` [Example 618, 1-(2,6-Difluorophenyl)-7-[(3R,4R)-3,4-dihydroxypyrrolidin-1-yl]-4-oxo-N-[(2R)-1,1,1-trifluorobutan-2-yl]-1,4-dihydro-1,8-naphthyridine-3-carboxamide] were, in that order, 39 nM, 99% and 30.
For `O=C(Nc1c(Cl)cccc1Cl)c1cn(-c2ccc(F)cc2F)c2nc(N3C[C@@H](O)[C@H](O)C3)ccc2c1=O` [Example 631, N-(2,6-Dichlorophenyl)-1-(2,4-difluorophenyl)-7-[(3R,4R)-3,4-dihydroxypyrrolidin-1-yl]-4-oxo-1,4-dihydro-1,8-naphthyridine-3-carboxamide], in that order: 49 nM, 86% and 23.
`CC(C)(NC(=O)c1cn(-c2c(F)cc(F)cc2F)c2nc(N3C[C@@H](O)[C@H](O)C3)ccc2c1=O)C(F)F` [Example 634, N-(1,1-Difluoro-2-methylpropan-2-yl)-7-[(3R,4R)-3,4-dihydroxypyrrolidin-1-yl]-4-oxo-1-(2,4,6-trifluorophenyl)-1,4-dihydro-1,8-naphthyridine-3-carboxamide]: at human M2 receptor [1], the 50% effective concentration (EC50) is 54 nM and the Emax stood at 100%. The “Cooperativity (alpha factor)” value on human M2 receptor [2] is listed as 48.
For `CC[C@@H](NC(=O)c1cn(-c2ccc(F)cc2F)c2nc(N3C[C@@H](O)[C@@H](O)C3)ccc2c1=O)C(F)(F)F` [Example 639, 1-(2,4-Difluorophenyl)-7-[(3R,4S)-3,4-dihydroxypyrrolidin-1-yl]-4-oxo-N-[(2R)-1,1,1-trifluorobutan-2-yl]-1,4-dihydro-1,8-naphthyridine-3-carboxamide], in that order: 68 nM, 96.5% and 25.
For `CC[C@@H](NC(=O)c1cn(-c2ccc(F)cc2F)c2nc(N3C[C@@H](O)[C@H](O)C3)ccc2c1=O)C(F)(F)F` [Example 646, 1-(2,4-Difluorophenyl)-7-[(3R,4R)-3,4-dihydroxypyrrolidin-1-yl]-4-oxo-N-[(2R)-1,1,1-trifluorobutan-2-yl]-1,4-dihydro-1,8-naphthyridine-3-carboxamide], in that order: 74 nM, 100% and 30.
